Results published in ChEMBL document CHEMBL3124874, “Development of selective inhibitors for aldehyde dehydrogenases based on substituted indole-2,3-diones” (J Med Chem, 2014).

Experiments:
[1] = target: T1, Aldehyde dehydrogenase, dimeric NADP-preferring (Homo sapiens, UniProt P30838); experiment: Inhibition of full length human ALDH3A1 expressed in Escherichia coli BL21 (DE3) using benzaldehyde as substrate preincubated for 2 mins followed by substrate addition by spectrophotometry in presence of NADP+
T1 sequence (P30838 whole entry): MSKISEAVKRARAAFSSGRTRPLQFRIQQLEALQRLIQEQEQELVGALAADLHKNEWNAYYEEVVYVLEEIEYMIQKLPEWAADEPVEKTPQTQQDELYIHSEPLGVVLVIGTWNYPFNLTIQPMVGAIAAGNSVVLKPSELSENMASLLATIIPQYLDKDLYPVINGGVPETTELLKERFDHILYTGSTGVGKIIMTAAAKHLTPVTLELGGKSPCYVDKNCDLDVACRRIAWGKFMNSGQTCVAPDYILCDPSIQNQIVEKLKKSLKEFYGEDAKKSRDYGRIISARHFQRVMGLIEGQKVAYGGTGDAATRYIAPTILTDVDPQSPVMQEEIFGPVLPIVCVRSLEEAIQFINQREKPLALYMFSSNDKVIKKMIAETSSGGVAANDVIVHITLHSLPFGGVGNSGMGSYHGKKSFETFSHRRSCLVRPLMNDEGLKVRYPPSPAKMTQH

[2] = target: T2, Aldehyde dehydrogenase 1A1 (Homo sapiens, UniProt P00352); experiment: Inhibition of human ALDH1A1 using propionaldehyde as substrate preincubated for 2 mins followed by substrate addition by spectrophotometry in presence of NAD+
T2 sequence (P00352 whole entry): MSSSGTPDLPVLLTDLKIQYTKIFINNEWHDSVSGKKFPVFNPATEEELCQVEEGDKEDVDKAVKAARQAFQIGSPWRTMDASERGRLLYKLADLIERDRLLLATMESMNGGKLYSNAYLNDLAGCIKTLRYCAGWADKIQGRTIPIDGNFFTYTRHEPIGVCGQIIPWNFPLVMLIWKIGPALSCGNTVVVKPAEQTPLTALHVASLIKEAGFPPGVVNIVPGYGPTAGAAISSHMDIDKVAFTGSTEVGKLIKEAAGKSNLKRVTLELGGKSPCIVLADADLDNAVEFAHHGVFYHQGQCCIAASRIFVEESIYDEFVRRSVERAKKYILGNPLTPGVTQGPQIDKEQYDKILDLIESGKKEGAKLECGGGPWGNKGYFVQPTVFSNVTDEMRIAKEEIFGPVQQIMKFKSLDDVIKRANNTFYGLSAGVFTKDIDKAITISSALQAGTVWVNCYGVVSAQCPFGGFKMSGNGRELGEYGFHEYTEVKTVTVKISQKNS

[3] = target: T3, Aldehyde dehydrogenase, mitochondrial (Homo sapiens, UniProt P05091); experiment: Inhibition of human ALDH2 using propionaldehyde as substrate preincubated for 2 mins followed by substrate addition by spectrophotometry in presence of NAD+
T3 sequence (P05091 whole entry): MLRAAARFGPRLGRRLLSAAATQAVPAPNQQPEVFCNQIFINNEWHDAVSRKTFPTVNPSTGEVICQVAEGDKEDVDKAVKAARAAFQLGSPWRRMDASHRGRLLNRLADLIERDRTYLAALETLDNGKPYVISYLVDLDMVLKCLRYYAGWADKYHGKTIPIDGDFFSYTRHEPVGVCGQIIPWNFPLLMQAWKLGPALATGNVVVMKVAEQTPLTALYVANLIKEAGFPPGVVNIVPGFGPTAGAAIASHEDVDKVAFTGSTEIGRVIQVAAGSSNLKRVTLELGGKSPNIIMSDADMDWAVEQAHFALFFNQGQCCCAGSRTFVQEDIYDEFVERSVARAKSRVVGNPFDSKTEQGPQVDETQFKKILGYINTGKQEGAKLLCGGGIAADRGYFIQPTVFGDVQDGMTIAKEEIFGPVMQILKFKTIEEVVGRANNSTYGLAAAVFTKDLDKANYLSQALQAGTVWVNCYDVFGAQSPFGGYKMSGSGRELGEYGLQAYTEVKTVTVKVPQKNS

[4] = target: T2, Aldehyde dehydrogenase 1A1; experiment: Competitive inhibition of human ALDH1A1 using propionaldehyde as substrate by Lineweaver-Burk plot analysis
[5] = target: T3, Aldehyde dehydrogenase, mitochondrial; experiment: Inhibition of human ALDH2 using propionaldehyde as substrate by Lineweaver-Burk plot analysis
[6] = target: T1, Aldehyde dehydrogenase, dimeric NADP-preferring; experiment: Inhibition of human ALDH3A1 by Lineweaver-Burk plot analysis in presence of NADP+
[7] = target: T1, Aldehyde dehydrogenase, dimeric NADP-preferring; experiment: Inhibition of human ALDH3A1 using benzaldehyde as substrate by Lineweaver-Burk plot analysis
[8] = target: T2, Aldehyde dehydrogenase 1A1; experiment: Noncompetitive/mixed type inhibition of human ALDH1A1 by Lineweaver-Burk plot analysis in presence of NAD+
[9] = target: T3, Aldehyde dehydrogenase, mitochondrial; experiment: Inhibition of human ALDH2 by Lineweaver-Burk plot analysis in presence of NAD+

Structure (SMILES)	IC50 [1] [nM]	IC50 [2] [nM]	IC50 [3] [nM]	other results
O=C1C(=O)N(CCCc2ccccc2)c2ccccc21	460	50	1200	
Cc1cc(Br)c2c(c1)C(=O)C(=O)N2	360	720	2400	Ki [4]: 900 nM; Ki [5]: 1000 nM; Ki [6]: 500 nM; Ki [7]: 380 nM; Ki [8]: 290 nM; Ki [9]: 2200 nM
O=C1C(=O)N(CN2CCN(Cc3ccccc3)CC2)c2ccccc21	930	50000	> 100000	
O=C1C(=O)N(CN2CCN(Cc3ccc4c(c3)OCO4)CC2)c2ccccc21	300	12000	> 100000	
O=C1C(=O)N(Cc2ccccc2)c2ccc(Cl)cc21		60	2100	
O=C1C(=O)N(CN2CCN(Cc3cccc(F)c3)CC2)c2ccccc21	1900	35000		
CCCCCN1C(=O)C(=O)c2ccccc21	420	40	1700	
CN1CCN(CN2C(=O)C(=O)c3ccccc32)CC1	1600	35000	> 100000	
O=C1C(=O)N(CCc2ccccc2)c2ccc(Br)cc21	18000	2000	50	
O=C1C(=O)N(CN2CCN(CN3C(=O)C(=O)c4ccccc43)C2)c2ccccc21	1600	19000		
O=C1C(=O)N(CN2CCOCC2)c2ccccc21	1300	20000	> 100000	
O=C1C(=O)N(CN2CCN(Cc3cccc(Cl)c3)CC2)c2ccccc21	1700	> 100000		
O=C1C(=O)N(C/C=C/c2ccccc2)c2ccccc21	310	70	> 100000	
O=C1C(=O)N(CCc2ccccc2)c2ccccc21		70	3500	
O=C1C(=O)N(Cc2ccccc2)c2ccc(Br)cc21		580	2100	
COc1cccc(CN2CCN(CN3C(=O)C(=O)c4ccccc43)CC2)c1	1200	34000		
O=C1C(=O)N(CN2CCN(Cc3ccc(F)cc3)CC2)c2ccccc21	1500	> 100000		
O=C1C(=O)N(CCc2ccccc2)c2ccc(Cl)cc21		90	410	
O=C1C(=O)N(CN2CCN(Cc3ccccc3F)CC2)c2ccccc21	1800	4000		
O=C1C(=O)N(CN2CCN(Cc3ccc4c(c3)OCO4)CC2)c2ccc(Br)cc21	73000	15000	> 100000	
O=C1C(=O)N(C/C=C/c2ccccc2)c2ccc(Cl)cc21		570		
